Assays:
recombinant human MER = target: T1, recombinant human MER (Homo sapiens, UniProt Q12866); test: Biochemical potency, HTRF KinEASE-TK kinase assay; conditions: 1 nM MER, 700 μM ATP
T1 construct: purchased Invitrogen
T1 sequence (Q12866 21-999): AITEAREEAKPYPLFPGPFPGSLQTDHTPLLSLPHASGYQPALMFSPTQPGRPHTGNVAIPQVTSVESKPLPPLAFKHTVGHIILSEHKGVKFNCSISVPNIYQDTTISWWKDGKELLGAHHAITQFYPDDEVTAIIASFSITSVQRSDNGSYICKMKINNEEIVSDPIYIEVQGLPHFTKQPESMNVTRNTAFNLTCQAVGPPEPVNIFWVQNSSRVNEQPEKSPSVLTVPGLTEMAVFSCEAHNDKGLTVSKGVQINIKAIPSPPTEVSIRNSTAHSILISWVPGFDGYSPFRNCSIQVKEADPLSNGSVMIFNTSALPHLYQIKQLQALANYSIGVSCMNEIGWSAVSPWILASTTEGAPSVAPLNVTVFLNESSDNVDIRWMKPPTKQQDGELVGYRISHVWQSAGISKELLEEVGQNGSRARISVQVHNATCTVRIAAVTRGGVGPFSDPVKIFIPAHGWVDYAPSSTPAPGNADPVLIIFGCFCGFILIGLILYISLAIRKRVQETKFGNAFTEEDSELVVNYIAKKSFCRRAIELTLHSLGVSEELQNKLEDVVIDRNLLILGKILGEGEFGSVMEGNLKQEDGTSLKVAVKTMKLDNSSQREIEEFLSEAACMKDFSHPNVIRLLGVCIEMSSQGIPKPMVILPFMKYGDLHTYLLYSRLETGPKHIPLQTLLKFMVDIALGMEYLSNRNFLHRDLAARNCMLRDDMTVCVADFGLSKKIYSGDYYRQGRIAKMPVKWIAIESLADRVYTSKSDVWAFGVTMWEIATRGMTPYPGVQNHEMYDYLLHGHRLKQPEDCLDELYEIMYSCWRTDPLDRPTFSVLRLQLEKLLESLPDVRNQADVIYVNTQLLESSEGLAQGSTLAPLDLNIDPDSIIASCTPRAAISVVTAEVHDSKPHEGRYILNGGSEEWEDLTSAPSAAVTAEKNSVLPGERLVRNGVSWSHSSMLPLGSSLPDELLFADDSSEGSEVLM
Procedure, shortened: (§1)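 Steps: compound plus kinase, 1 h RT; add ATP (700 µM final) and biotin-TK substrate (800 nM final); run 2 h RT; stop into streptavidin-XL665/anti-phospho cryptate detection mix, 1 h; read 665/620. AXL at 5 nM, TYRO3 and MER at 1 nM.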

recombinant human TYRO3 = target: T2, recombinant human TYRO3 (Homo sapiens, UniProt Q06418); test: Biochemical potency, HTRF KinEASE-TK kinase assay; conditions: 1 nM TYRO3, 700 μM ATP
T2 construct: purchased Invitrogen
T2 sequence (Q06418 41-890): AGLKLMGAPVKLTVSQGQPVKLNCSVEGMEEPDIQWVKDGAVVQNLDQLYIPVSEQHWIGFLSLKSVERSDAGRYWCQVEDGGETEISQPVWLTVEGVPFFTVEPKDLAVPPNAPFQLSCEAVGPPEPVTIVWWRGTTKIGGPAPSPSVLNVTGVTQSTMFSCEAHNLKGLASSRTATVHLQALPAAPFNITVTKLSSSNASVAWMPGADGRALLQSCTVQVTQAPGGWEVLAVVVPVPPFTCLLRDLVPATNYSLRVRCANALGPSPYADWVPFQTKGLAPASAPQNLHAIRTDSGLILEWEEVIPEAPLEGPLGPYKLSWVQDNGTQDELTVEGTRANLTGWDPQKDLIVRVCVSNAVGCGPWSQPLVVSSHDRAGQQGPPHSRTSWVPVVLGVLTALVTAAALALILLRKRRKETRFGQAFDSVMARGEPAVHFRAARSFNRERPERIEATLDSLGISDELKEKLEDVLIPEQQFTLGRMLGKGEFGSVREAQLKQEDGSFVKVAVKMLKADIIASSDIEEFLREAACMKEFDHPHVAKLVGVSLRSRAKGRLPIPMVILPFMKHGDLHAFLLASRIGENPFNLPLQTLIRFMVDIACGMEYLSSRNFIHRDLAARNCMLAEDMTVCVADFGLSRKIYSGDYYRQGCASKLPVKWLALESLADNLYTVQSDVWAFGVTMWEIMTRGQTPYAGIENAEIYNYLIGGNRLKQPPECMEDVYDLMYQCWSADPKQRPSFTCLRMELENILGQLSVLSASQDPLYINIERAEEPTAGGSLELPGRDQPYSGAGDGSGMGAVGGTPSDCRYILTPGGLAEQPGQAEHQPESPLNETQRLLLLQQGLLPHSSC
Procedure, shortened: as §1

SMILES | IC50 (recombinant human MER) | IC50 (recombinant human TYRO3)
Cc1cccnc1-c1ccc(-c2n[nH]c3ncc(-c4ccc5c(c4)CC[C@@](C)(N4CCC[C@H]4C)CC5)cc23)nc1 [Example 105, 3-Methyl-6′-{5-[(7S)-7-methyl-7-[(2R)-2-methylpyrrolidin-1-yl]-6,7,8,9-tetrahydro-5H-benzo[7]annulen-2-yl]-1H-pyrazolo[3,4-b]pyridin-3-yl}-2,3′-bipyridine] | < 100 nM | < 100 nM
CN(C)C(=O)c1ccccc1-c1ccc(-c2c[nH]c3ncc(-c4ccc5c(c4)CC[C@@H](N4C6COCC4C6)CC5)cc23)cn1 [Example 170, N,N-Dimethyl-2-(5-{5-[(7S)-7-{3-oxa-6-azabicyclo[3.1.1]heptan-6-yl}-6,7,8,9-tetrahydro-5H-benzo[7]annulen-2-yl]-1H-pyrrolo[2,3-b]pyridin-3-yl}pyridin-2-yl)benzamide] | 100 to 1000 nM | 100 to 1000 nM
c1cncc(-c2ccc(-c3c[nH]c4ncc(-c5ccc6c(c5)CC[C@@H](N5C7COCC5C7)CC6)cc34)cc2)c1 [Example 158, 6-[(7S)-2-{3-[4-(Pyridin-3-yl)phenyl]-1H-pyrrolo[2,3-b]pyridin-5-yl}-6,7,8,9-tetrahydro-5H-benzo[7]annulen-7-yl]-3-oxa-6-azabicyclo[3.1.1]heptane] | > 1000 nM | > 1000 nM
c1ccc(-c2ccc(-c3c[nH]c4ncc(-c5ccc6c(c5)CC[C@@H](N[C@H]5CCCOC5)CC6)cc34)cc2)nc1 [Example 32, (3S)—N-[(7S)-3-[3-(4-Pyridin-2-ylphenyl)-1H-pyrrolo[2,3-b]pyridin-5-yl]-6,7,8,9-tetrahydro-5H-benzo[7]annulen-7-yl]oxan-3-amine] | 100 to 1000 nM | 100 to 1000 nM
OC1(c2cccnc2-c2ccc(-c3c[nH]c4ncc(-c5ccc6c(c5)CC[C@@H](N5C7COCC5C7)CC6)cc34)cc2)CCC1 [Example 22, 1-[2-[4-[5-[(7S)-7-(3-Oxa-6-azabicyclo[3.1.1]heptan-6-yl)-6,7,8,9-tetrahydro-5H-benzo[7]annulen-3-yl]-1H-pyrrolo[2,3-b]pyridin-3-yl]phenyl]pyridin-3-yl]cyclobutan-1-ol] | < 100 nM | < 100 nM
CC(C)(C#N)c1cccnc1-c1ccc(-c2c[nH]c3ncc(-c4ccc5c(c4)CC[C@@H](N4C6COCC4C6)CC5)cc23)cc1 [Example 21, 2-Methyl-2-[2-[4-[5-[(7S)-7-(3-oxa-6-azabicyclo[3.1.1]heptan-6-yl)-6,7,8,9-tetrahydro-5H-benzo[7]annulen-3-yl]-1H-pyrrolo[2,3-b]pyridin-3-yl]phenyl]pyridin-3-yl]propanenitrile] | 100 to 1000 nM | < 100 nM
Cc1cccnc1-c1ccc(-c2n[nH]c3ncc(-c4ccc5c(c4)CC[C@@H](N4C[C@@H]6C[C@H]4CO6)CC5)cc23)cc1 [Example 130, (1S,4S)-5-[(7S)-2-{3-[4-(3-Methylpyridin-2-yl)phenyl]-1H-pyrazolo[3,4-b]pyridin-5-yl}-6,7,8,9-tetrahydro-5H-benzo[7]annulen-7-yl]-2-oxa-5-azabicyclo[2.2.1]heptane] | < 100 nM | < 100 nM

Next, values leading:

IC50 (recombinant human MER) | IC50 (recombinant human TYRO3) | SMILES
> 1000 nM | > 1000 nM | Cn1nncc1-c1ccc(-c2n[nH]c3ncc(-c4ccc5c(c4)CC[C@@H](N4C6COCC4C6)CC5)cc23)cc1 [Example 13, 6-[(7S)-2-{3-[4-(1-Methyl-1H-1,2,3-triazol-5-yl)phenyl]-1H-pyrazolo[3,4-b]pyridin-5-yl}-6,7,8,9-tetrahydro-5H-benzo[7]annulen-7-yl]-3-oxa-6-azabicyclo[3.1.1]heptane]
100 to 1000 nM | < 100 nM | CC(C)(O)c1cccnc1-c1ccc(-c2n[nH]c3ncc(-c4ccc5c(c4)CC[C@@H](N4C6COCC4C6)CC5)cc23)cc1 [Example 10, 2-[2-(4-{5-[(7S)-7-{3-Oxa-6-azabicyclo[3.1.1]heptan-6-yl}-6,7,8,9-tetrahydro-5H-benzo[7]annulen-2-yl]-1H-pyrazolo[3,4-b]pyridin-3-yl}phenyl)pyridin-3-yl]propan-2-ol]
100 to 1000 nM | 100 to 1000 nM | O=C(c1cccnc1-c1ccc(-c2n[nH]c3ncc(-c4ccc5c(c4)CC[C@@H](N4C6COCC4C6)CC5)cc23)cc1)N1CCCC1 [Example 4, 6-[(7S)-2-(3-{4-[3-(Pyrrolidine-1-carbonyl)pyridin-2-yl]phenyl}-1H-pyrazolo[3,4-b]pyridin-5-yl)-6,7,8,9-tetrahydro-5H-benzo[7]annulen-7-yl]-3-oxa-6-azabicyclo[3.1.1]heptane]
100 to 1000 nM | 100 to 1000 nM | c1cnc(-c2ccc(-c3n[nH]c4ncc(-c5ccc6c(c5)CC[C@@H](N5C7COCC5C7)CC6)cc34)cc2)c(C2CC2)c1 [Example 179, 6-[(7S)-2-{3-[4-(3-Cyclopropylpyridin-2-yl)phenyl]-1H-pyrazolo[3,4-b]pyridin-5-yl}-6,7,8,9-tetrahydro-5H-benzo[7]annulen-7-yl]-3-oxa-6-azabicyclo[3.1.1]heptane]
100 to 1000 nM | < 100 nM | Cn1ncnc1-c1ccc(-c2n[nH]c3ncc(-c4ccc5c(c4)CC[C@@H](N4C6COCC4C6)CC5)cc23)cc1 [Example 110, 6-[(7S)-2-{3-[4-(1-Methyl-1H-1,2,4-triazol-5-yl)phenyl]-2H-pyrazolo[3,4-b]pyridin-5-yl}-6,7,8,9-tetrahydro-5H-benzo[7]annulen-7-yl]-3-oxa-6-azabicyclo[3.1.1]heptane]
100 to 1000 nM | 100 to 1000 nM | Cc1nccnc1-c1ccc(-c2n[nH]c3ncc(-c4ccc5c(c4)CC[C@@H](N4C6COCC4C6)CC5)cc23)cc1 [Example 175, 6-[(7S)-2-{3-[4-(3-Methylpyrazin-2-yl)phenyl]-1H-pyrazolo[3,4-b]pyridin-5-yl}-6,7,8,9-tetrahydro-5H-benzo[7]annulen-7-yl]-3-oxa-6-azabicyclo[3.1.1]heptane]
< 100 nM | < 100 nM | Cc1ccnnc1-c1ccc(-c2n[nH]c3ncc(-c4ccc5c(c4)CC[C@@H](N4C6COCC4C6)CC5)cc23)cc1 [Example 176, 6-[(7S)-2-{3-[4-(4-Methylpyridazin-3-yl)phenyl]-1H-pyrazolo[3,4-b]pyridin-5-yl}-6,7,8,9-tetrahydro-5H-benzo[7]annulen-7-yl]-3-oxa-6-azabicyclo[3.1.1]heptane]
100 to 1000 nM | 100 to 1000 nM | Cn1nccc1-c1ccc(-c2n[nH]c3ncc(-c4ccc5c(c4)CC[C@@H](N4C6COCC4C6)CC5)cc23)cc1 [Example 109, 6-[(7S)-2-{3-[4-(1-Methyl-1H-pyrazol-5-yl)phenyl]-1H-pyrazolo[3,4-b]pyridin-5-yl}-6,7,8,9-tetrahydro-5H-benzo[7]annulen-7-yl]-3-oxa-6-azabicyclo[3.1.1]heptane]
> 1000 nM | > 1000 nM | Cc1ccccc1-c1ccc(-c2n[nH]c3ncc(-c4ccc5c(c4)CC[C@@H](N4C6COCC4C6)CC5)cc23)nc1 [Example 98, 6-[(7S)-2-{3-[5-(2-Methylphenyl)pyridin-2-yl]-1H-pyrazolo[3,4-b]pyridin-5-yl}-6,7,8,9-tetrahydro-5H-benzo[7]annulen-7-yl]-3-oxa-6-azabicyclo[3.1.1]heptane]
